The values that follow come from ChEMBL document CHEMBL4665708, “Generation of Stilbene Antimicrobials against Multiresistant Strains of Staphylococcus aureus through Biotransformation by the Enzymatic Secretome of Botrytis cinerea” (J Nat Prod, 2020).

In brackets after ≈: the same amount, converted by molar mass. Activity calls are given as the source filed them. Where only a bound is given, the exact number is not on record here.

The test system of data set [1] is HepG2. Kind of data set: Cytotoxicity against human HepG2 cells after 3 days by microplate reader analysis. Type of data set: cell-based. The settings on record: HepG2, 72 h.
The test system of data set [2] is MCF-10A. Kind of data set: Cytotoxicity against human MCF-10A cells after 3 days by microplate reader analysis. It is filed as cell-based. The note with it: 72 h.
Data set [3] deals with Staphylococcus aureus. Kind of data set: Antimicrobial activity against methicillin-resistant Staphylococcus aureus ATCC 33591 after 24 hrs by broth microdilution method. It is filed as functional. A general note: Dilution methods test growth across graded concentrations, often in twofold steps.
Data set [4] can be described thus: Selectivity ratio of IC50 for human MCF-10A cells to MIC for methicillin-resistant Staphylococcus aureus ATCC 33591. Type of data set: toxicity.
The test system of data set [5] is Pseudomonas aeruginosa. Kind of data set: Antimicrobial activity against Pseudomonas aeruginosa ATCC 27853 at 256 ug/ml after 24 hrs by broth microdilution assay. Type of data set: functional, organism-based. The settings on record: dose 256.0 µg/ml.
In data set [6] the test system is Staphylococcus aureus. Kind of data set: Antimicrobial activity against vancomycin-resistant Staphylococcus aureus 510 after 24 hrs by broth microdilution method. It is filed as functional.
Data set [7] can be described thus: Selectivity ratio of IC50 for human MCF-10A cells to MIC for vancomyicin-resistant Staphylococcus aureus 510. Type of data set: toxicity.

Regarding `COc1cc(OC)cc(C(Oc2ccc(/C=C/c3cc(O)cc(O)c3)cc2)C(OC)c2ccc(O)cc2)c1` (centres undefined), the IC50 (in general, the concentration needed to halve the response being measured) was determined as 29 µM in data set [1] and 23 µM in data set [2]. In addition, 62 µM (≈ 31.9 µg/mL) was the least that counted as inhibitory in data set [3] (MIC). In data set [4], the selectivity ratio is 0.4. In addition, the result in data set [5] was inactive.
Consider `COc1cc(OC)cc([C@@H]2[C@@H](c3ccc(O)cc3)c3c(OC)cc(OC)cc3[C@H]2[C@@H](O)c2ccc(O)cc2)c1`, for which the MIC (as a rule, the smallest concentration in the dilution series that meets the test's criterion for growth inhibition) in data set [3] was 121 µM (≈ 64 µg/mL). Further, the result in data set [5] was inactive.
As for `COc1cc(/C=C/c2ccc3c(c2)[C@H](c2cc(O)cc(O)c2)[C@@H](c2ccc(O)cc2)O3)cc(OC)c1`, the IC50 was determined as 27 µM in data set [1] and 66 µM in data set [2]. Further, the values for the MIC in data set [6] and in data set [3] were 2 µM (≈ 0.965 µg/mL) and 22 µM (≈ 10.6 µg/mL), respectively. Moreover, the selectivity ratio in data set [7] and in data set [4] was 32 in each case. In data set [5], the outcome was inactive.
Consider `COc1cc(/C=C/c2ccc3c(c2)[C@H](c2cc(OC)cc(OC)c2)[C@@H](c2ccc(O)cc2)O3)cc(OC)c1`, for which the values for the IC50 in data set [1] and in data set [2] were 29 µM and 25 µM, respectively. For the same compound, the MIC in data set [3] was greater than 251 µM. In addition, the selectivity ratio in data set [4] is less than 0.1. The outcome in data set [5] was inactive.
As for `COc1cc(OC)cc([C@@H]2[C@@H](c3ccc(O)cc3)c3c(O)cc(O)cc3[C@H]2[C@@H](OC)c2ccc(O)cc2)c1`, in data set [3], the MIC was greater than 249 µM. In addition, the outcome in data set [5] was inactive.
In the case of `COc1cc(OC)cc(C(C(OC)OC)C(c2cc(OC)cc(OC)c2)C(c2ccc(O)cc2)c2ccc(O)cc2)c1` (centres undefined), the IC50 in data set [1] and in data set [2] was 19 µM each time. Moreover, in data set [3], the MIC amounted to 14 µM (≈ 8.05 µg/mL). Also, the selectivity ratio in data set [4] was determined as 1.4. In data set [5], the outcome was inactive.
For `COc1cc(OC)cc([C@@H]2[C@@H](c3cc(OC)cc(OC)c3)[C@H](c3ccc(O)cc3)O[C@@H]2c2ccc(O)cc2)c1`, the IC50 in data set [1] and in data set [2] was greater than 95 µM each time. This compound also showed an MIC in data set [3] of 121 µM (≈ 64 µg/mL). In addition, the result in data set [5] was inactive.
Take `CN[C@H](CC(C)C)C(=O)N[C@H]1C(=O)N[C@@H](CC(N)=O)C(=O)N[C@H]2C(=O)N[C@H]3C(=O)N[C@H](C(=O)N[C@H](C(=O)O)c4cc(O)cc(O)c4-c4cc3ccc4O)[C@H](O)c3ccc(c(Cl)c3)Oc3cc2cc(c3O[C@@H]2O[C@H](CO)[C@@H](O)[C@H](O)[C@H]2O[C@H]2C[C@](C)(N)[C@H](O)[C@H](C)O2)Oc2ccc(cc2Cl)[C@H]1O` [VANCOMYCIN]: the figures for the MIC in data set [6] and in data set [3] were 22 µM (≈ 31.9 µg/mL) and 0.69 µM (≈ 1 µg/mL), respectively. Besides, in data set [5], the outcome was inactive.
`COc1cc(OC)cc([C@@H]2[C@@H](c3ccc(O)cc3)c3c(O)cc(O)cc3[C@H]2[C@H](OC)c2ccc(O)cc2)c1`: the MIC in data set [3] is greater than 249 µM. Moreover, the result in data set [5] was inactive.
In data set [3], `COC(c1ccc(O)cc1)[C@@H]1c2cc(O)cc(O)c2[C@H](c2ccc(O)cc2)[C@H]1c1cc(O)cc(O)c1` (some centres undefined) returned an MIC greater than 263 µM. The result in data set [5] was inactive.
As for `COc1cccc2c1C(=O)c1c(O)c3c(c(O)c1C2=O)C[C@@](O)(C(=O)CO)C[C@@H]3O[C@H]1C[C@H](N)[C@H](O)[C@H](C)O1` [DOXORUBICIN], the figures for the IC50 in data set [1] and in data set [2] were 1.18 µM and 0.31 µM, respectively.
`COc1cc(OC)cc([C@@H](C(OC)OC)[C@@H](c2cc(O)cc(O)c2)C(c2ccc(O)cc2)c2ccc(O)cc2)c1`: the MIC in data set [3] is greater than 234 µM. The result in data set [5] was inactive.
Consider `COc1cc(OC)cc([C@H]2c3cc(/C=C/c4cc(O)cc(O)c4)ccc3O[C@@H]2c2ccc(O)cc2)c1` (relative stereo), for which the IC50 worked out at 27 µM in data set [1] and 29 µM in data set [2]. In addition, the MIC in data set [6] and in data set [3] was 4 µM (≈ 1.93 µg/mL) in each case. Further, the selectivity ratio in data set [7] and in data set [4] was 7.2 in each case. The outcome in data set [5] was inactive.
Turning to `COc1cc(OC)c2c(c1)[C@@H]([C@@H](OC)c1ccc(O)cc1)[C@H](c1cc(O)cc(O)c1)[C@H]2c1ccc(O)cc1`, the MIC in data set [3] is greater than 249 µM. Further, in data set [5], the outcome was inactive.
`COc1cc(OC)cc([C@@H]2[C@@H](c3ccc(O)cc3)c3c(OC)cc(OC)cc3[C@H]2[C@H](O)c2ccc(O)cc2)c1` returned an MIC in data set [3] of 121 µM (≈ 64 µg/mL). Also, in data set [5], the result was inactive.
`COc1cc(/C=C/c2ccc(OC(c3cc(O)cc(O)c3)C(OC)c3ccc(O)cc3)cc2)cc(OC)c1` (racemic): the figures for the IC50 in data set [1] and in data set [2] were 23 µM and 27 µM, respectively. The MIC in data set [6] stood at 4 µM (≈ 2.06 µg/mL); in data set [3], 8 µM (≈ 4.12 µg/mL). Also, the selectivity ratio stood at 6.9 in data set [7] and 3.4 in data set [4]. In addition, in data set [5], the outcome was inactive.
Consider `Oc1ccc(/C=C/c2cc(O)cc(O)c2)cc1` [RESVERATROL], for which the MIC in data set [3] was greater than 561 µM. The result in data set [5] was inactive.
`COc1cc(OC)cc([C@@H]2[C@@H](c3ccc(O)cc3)c3c(O)cc(O)cc3[C@H]2C(O)c2ccc(O)cc2)c1` (some centres undefined): in data set [3], the MIC was greater than 256 µM. In addition, the result in data set [5] was inactive.
Turning to `COc1cc(OC)c2c(c1)[C@H]1[C@H](c3ccc(O)cc3)c3c(OC)cc(OC)cc3[C@H]1[C@@H]2c1ccc(O)cc1`, the IC50 is 22 µM in data set [1] and 24 µM in data set [2]. Further, inhibition of growth in data set [3] (MIC) required 31 µM (≈ 15.8 µg/mL). The selectivity ratio in data set [4] is 0.7. In addition, the result in data set [5] was inactive.
On to `COc1cc(/C=C/c2ccc(O)cc2)cc(OC)c1` [PTEROSTILBENE], for which, in data set [3], inhibition of growth (MIC) required 31 µM (≈ 7.95 µg/mL). Also, the outcome in data set [5] was inactive.
As to `Oc1ccc([C@H]2Oc3ccc(/C=C/c4cc(O)cc(O)c4)cc3[C@@H]2c2cc(O)cc(O)c2)cc1` (relative stereo), the IC50 in data set [1] and in data set [2] was 48 µM throughout. Also, 35 µM (≈ 15.9 µg/mL) was the least that counted as inhibitory in data set [3] (MIC). Also, the selectivity ratio in data set [4] turned out to be 1.4. The result in data set [5] was inactive.
For the compound `COc1cc(/C=C/c2ccc(OC(c3cc(OC)cc(OC)c3)C(O)c3ccc(O)cc3)cc2)cc(OC)c1` (centres undefined), the MIC in data set [3] is greater than 242 µM. For the same compound, the outcome in data set [5] was inactive.
Regarding `Oc1ccc([C@@H]2c3c(O)cc(O)cc3[C@H]3[C@H](c4ccc(O)cc4)c4c(O)cc(O)cc4[C@@H]23)cc1` [PALLIDOL], the MIC in data set [3] is greater than 282 µM. In addition, the result in data set [5] was inactive.
On to `COc1cc(OC)cc([C@@H]2[C@@H](c3ccc(O)cc3)c3c(OC)cc(OC)cc3[C@H]2[C@@H](OC)c2ccc(O)cc2)c1`, for which the IC50 was determined as 15 µM in data set [1] and 17 µM in data set [2]. Further, it took 15 µM (≈ 8.14 µg/mL) to inhibit growth in data set [3] (MIC). For the same compound, the selectivity ratio in data set [4] was 1.1. Besides, in data set [5], the outcome was inactive.
